Assay: gradient 5% acetonitrile 3 min, to 50% in 2 min, to 85% in 15 min, held 3 min, 100 µL/min
Settings: column: Zorbax Extend-C18 2.1 x 50 mm; eluents: water / acetonitrile, 0.1% formic acid
How it was run: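 The system's dead and dwell volumes were 40 μL and 900 μL, with a Zorbax Extend-C18 column (2.1 × 50 mm, 1.8 μm) run at 100 μL/min in water and acetonitrile containing 0.1% formic acid each. Pure standards were analyzed in mixtures of ~100 molecules by HPLC–quadrupole time-of-flight mass spectrometry in positive and negative ionization mode. Retention time was assigned from computationally picked, manually inspected adduct peaks.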

Row | Structure (SMILES) | RP-LC retention time [s]
1 | COc1ccc(-c2cn3c(CC(=O)N4CCOCC4)csc3n2)cc1OC | 607
2 | Cc1nc2cc(N3CC(C(=O)N4CCN(c5ccccc5)CC4)CC3=O)ccc2o1 (stereo not given) | 727
3 | CCC(C)NC(=O)N1CCN(Cc2nc3cc(C(C)(C)C)ccc3o2)CC1 (stereo not given) | 758
4 | O=C(O)c1nnn(-c2ccccc2F)c1-c1cccnc1 | 612
5 | CCOC(=O)C1CCN(C(=O)CN2CCN(Cc3ccc(C)cc3)C(=O)C2=O)CC1 | 710
6 | Cc1ccc(-c2noc(Cn3ccn(-c4ccccc4)c(=O)c3=O)n2)cc1C | 897
7 | Cc1ccc(-c2noc(C3CCCN3S(=O)(=O)c3c(C)cc(C)cc3C)n2)cc1 (stereo not given) | 1330
8 | CC(C)(C)c1ccc(C(=O)NCc2cnn3ccccc23)cc1 | 806
9 | O=C(NC1CCN(c2cc(-c3ccccc3)[nH]n2)CC1)c1ccc(Cl)s1 | 838
10 | Cn1nc(CN2CCCC2)c2c1CCN(S(=O)(=O)c1ccc(C(F)(F)F)cc1)C2 | 679
11 | CCc1nn2c(CNC(=O)c3cc(C)cc(C)c3)c(-c3ccccc3)nc2s1 | 1030
12 | CCOc1ccc(-n2nnc(C(=O)OC)c2C(=O)OC)cc1 | 882
13 | CCCS(=O)(=O)c1nc2ccc(NS(=O)(=O)c3cc(OC)ccc3OC)cc2s1 | 909
14 | CCCn1c(CCc2cccc(NS(=O)(=O)c3cnn(CC)c3)c2)nc2ccccc21 | 675
15 | Cc1nnc(-c2cc(C)n(CC(=O)Nc3ccc(F)cc3)c2C)o1 | 754
16 | COC(=O)c1ccccc1Nc1c(-c2ccc(N(C)C)cc2)nc2cnccn12 | 921
17 | CCOC(=O)COc1cc(-c2ccccc2)nc2ccc(NC(=O)Cc3cccs3)cc12 | 797
18 | Cn1nc(C(=O)N2CCC(Nc3cccnc3)C2)c2ccccc21 (stereo not given) | 781
19 | CC(=O)Nc1ccc(S(=O)(=O)N2CCCCC2c2cccnc2)cc1 (stereo not given) | 593
20 | CN1c2ccc(F)cc2C(=O)NC12CCN(C(=O)NCc1ccc(F)cc1)CC2 | 750
21 | Cc1ccc(CNC(=O)CCCN2C(=O)CCn3nc(-c4cn(C)c5ccccc45)cc32)o1 | 815
22 | Cc1cc(N2CCOCC2)n2nc(CN3CCN(c4ccccc4)CC3)nc2n1 | 588
23 | C=CCNC(=O)c1cnn(-c2cc(-c3nc(C(C)(C)C)no3)ccn2)c1C | 1020

Row | Structure (SMILES) | RP-LC retention time [s]
24 | COC(=O)c1c(C)oc2ccc(OCC(=O)c3ccc(F)cc3)cc12 | 999
25 | C=CCn1c(=O)c2ccccc2n(Cc2nc(-c3ccc(F)cc3)no2)c1=O | 1050
26 | Cc1ccc(CNC(=O)C2CCN(S(=O)(=O)c3cc(C(=O)N(C)C)cs3)CC2)cc1 | 762
27 | Cc1ccccc1Cn1nc2c(S(=O)(=O)N3CCCC3)cccn2c1=O | 846
28 | O=C(NCCN1CCCCC1)C1CCc2sc(C(=O)N3CCOCC3)cc2C1 (stereo not given) | 581
29 | Cc1ccccc1CC(=O)N1CCC2(CC1)NC(=O)c1ccc(F)cc1N2C | 798
30 | CC(C)NC(=O)c1ccc(OCC2CCCN2C(=O)C(C)C)cc1 (stereo not given) | 757
31 | CCn1cc(CCN2CCC(C(=O)Nc3ccc4c(c3)OCCO4)CC2)c2cccnc21 | 626
32 | CC1CCN(C(=O)c2cn(CC3CCCO3)cc3c(=O)n(-c4ccccc4)nc2-3)CC1 (stereo not given) | 766
33 | CC(C)CN1CCn2cc(C(=O)NCc3ccc(F)cc3Cl)nc2C1 | 646
34 | CCn1ccc(C(=O)N2CC(n3cc(COC)nn3)C2)n1 | 605
35 | Cc1cc2c(c(=O)n(-c3ccc(F)cc3)c(=O)n2CC(=O)Nc2ccc(F)cc2)n1C | 825
36 | O=c1c2cc(-c3ccc(F)cc3)nn2ccn1Cc1noc(CN2CCCCCC2)n1 | 683
37 | Cc1ccn2c(Nc3ccccc3C)c(-c3cccc(Cl)c3)nc2c1 | 890
38 | CCc1ccc(-n2nnc3c(=O)n(Cc4nc(-c5ccccc5Cl)no4)cnc32)cc1 | 1120
39 | Cc1ccc(-c2cc(C(=O)NCCN(C)C)n(C)c2)cc1 | 657
40 | CCc1nc(-c2cccc(-c3noc(CNS(=O)(=O)c4ccccc4)n3)c2)cs1 | 1070
41 | COc1ccccc1N1CC(c2nc3ccccc3n2CC(=O)N(C(C)C)C(C)C)CC1=O (stereo not given) | 752
42 | Cn1nc(N2CCC(NC(=O)Cc3cccs3)C2)ccc1=O (stereo not given) | 627
43 | CC(Oc1ccc2c(c1)OCO2)C(=O)NCCn1nc(-c2cccs2)ccc1=O (stereo not given) | 712
44 | Cc1nnc(N2CCC(C(=O)NCCN3CCOCC3)CC2)c2nn(-c3ccc(Cl)cc3)c(C)c12 | 571
45 | O=C(Cn1ccc2ccc(N3CCCCCC3)nc21)N1CCC(N2CCCCC2)CC1 | 709
46 | O=C(Nc1cccs1)N1CC(c2nc(C3CC3)no2)C1 | 681

Row | Structure (SMILES) | RP-LC retention time [s]
47 | Cc1ccc(C)c(S(=O)(=O)N2CC[C@H](n3c(=O)n(C)c4cccnc43)C2)c1 | 892
48 | COc1cc(NS(=O)(=O)c2cc3n(c2)CCCNC3=O)cc(OC)c1 | 639
49 | Cc1ccc(NC(=O)Nc2ccc3nncn3c2)cc1C | 730
50 | COc1ccc(-c2csc3c(=O)n(CC(=O)NCc4ccco4)cnc23)cc1 | 764
51 | CCN1c2ccccc2C(=O)NC12CCN(C(=O)Nc1cc(Cl)ccc1OC)CC2 | 787
52 | CCn1c(=O)c(C)nc2cc(-c3noc(-c4ccccc4C)n3)ccc21 | 1190
53 | CC(=O)Nc1cc(-c2nc(-c3ccc4oc(-c5ccccc5)nc4c3)no2)ccc1C | 738
54 | COc1ccccc1C(=O)N1CCCC1COc1ccc(C(=O)N2CCCC2)cc1 (stereo not given) | 784
55 | Cc1ccc(-c2noc(-c3cccc(S(=O)(=O)NCCCN4CCCCCC4)c3)n2)cc1 | 832
56 | CCCCNC(=O)C1CCN(S(C)(=O)=O)c2cc(Cl)ccc2O1 (stereo not given) | 887
57 | COc1ccccc1CN[C@@H]1CCCN[C@@H]1c1ccccc1 | 598
58 | Cc1ccc(NC(=O)N2C[C@@H](F)C[C@H]2C(=O)N2CCCCC2)cc1Cl | 813
59 | CC1CC(=O)N(CC(=O)NCc2ccc3c(c2)OCO3)c2ccccc2S1 (stereo not given) | 741
60 | Cc1ccc(C(=O)N2CCCn3cc(-c4ccccc4)nc32)cn1 | 605
61 | CCn1cnc2ccc(-c3noc(-c4ccc(Cl)cc4)n3)cc21 | 863
62 | Cn1ccc2cc(C(=O)NC3CCCC3)ccc21 | 806
63 | Cc1c(Cl)cccc1NC(=O)CC1COc2ccccc2NC1=O (stereo not given) | 756
64 | O=C(NC1CCCCC1)c1ccc2ccnc(N3CCN(c4ccccc4F)CC3)c2c1 | 908
65 | CN1C(=O)C2CCCCN2c2ccc(C(=O)NCCCN3CCCCCC3)cc21 (stereo not given) | 627
66 | CC(=O)c1cccc(NC(=O)Nc2cccc(-c3ccc(N4CCCC4)nn3)c2)c1 | 654
67 | CNC(=O)c1cc(C)nc2ccc(Cl)cc12 | 607
68 | CCCC(=O)Nc1ccc2c(c1)CC(C(=O)NCC(=O)OC)CO2 (stereo not given) | 650
69 | CCNC(=O)Nc1cccnc1N1CCCCC1 | 577

Row | Structure (SMILES) | RP-LC retention time [s]
70 | CN1CCn2ccnc2C12CCN(C(=O)Nc1ccccc1Cl)CC2 | 576
71 | CCCCC1CCC(C(=O)Nc2nc(-c3ccc4c(c3)NC(=O)CO4)cs2)CC1 (stereo not given) | 934
72 | Cc1nc2ccccc2c(=O)n1Cc1noc(-c2ccc(C(F)(F)F)cc2)n1 | 987
73 | CCc1ccc(NS(=O)(=O)c2cc(-c3[nH]ncc3C(=O)N(C)C)oc2C)cc1 | 704
74 | Cc1cccc(-c2noc(Cn3nc(-c4ccc(F)cc4)ccc3=O)n2)c1 | 1060
75 | Cc1cc(S(=O)(=O)N2CC(Cc3nncn3C3CCCC3)C2)ccc1Cl | 785
76 | O=C(CN1C(=O)CC(c2cccs2)=Nc2ccccc21)Nc1ccccc1F | 910
77 | O=S(=O)(Nc1ccc(F)cc1F)c1ccc2c(c1)-c1oncc1CO2 | 873
78 | CC1(C(=O)NCc2ccc(F)cc2)CCCN(C(=O)NCc2ccccc2)C1 (stereo not given) | 829
79 | COCc1cc(=O)n(CC(=O)Nc2cc(OC)c(OC)c(OC)c2)c(N2CCOCC2)n1 | 734
80 | O=C1CCC(C(=O)N2C[C@@H](COCC3CC3)[C@H](c3ccccn3)C2)=NN1 | 583
81 | O=C(NCc1ccccc1Cl)c1cn2c(n1)CCCC2 | 613
82 | Cc1ccc2c(=O)c3c([nH]c2c1C)CCN(CC(=O)NCc1ccccc1F)C3 | 621
83 | O=C(Nc1ccccc1F)N1CCC(CCOc2ccccc2)CC1 | 1030
84 | CCN1C(=O)C2(CCN(S(=O)(=O)c3ccc(Cl)cc3C)CC2)c2ccccc21 | 1200
85 | Cc1ccc(-c2nc(NC(=O)CCCOc3ccc(Cl)cc3)sc2C)cc1 | 1250
86 | COc1ccc(C2(C(=O)N3CCCN(Cc4noc(-c5ccccc5)n4)CC3)CC2)cc1 | 703
87 | CC(CNC(=O)C1CCN(S(=O)(=O)c2cn(C(C)C)cn2)CC1)c1ccccc1 (stereo not given) | 764
88 | O=C(Cc1ccsc1)Nc1cnc(-c2ccccc2)nc1 | 890
89 | COc1cc(CCC(=O)N2CCC3(CC2)NCc2ccccc2-n2ccnc23)on1 | 584
90 | COC(=O)C1C(=O)C2=C(CC1C)NC(C)=C(C(=O)OCCOC(C)C)C2c1ccccc1F (stereo not given) | 914

From the METLIN SMRT retention time set (Domingo-Almenara et al. 2019)
